Data from ChEMBL document CHEMBL3797052 (Eur J Med Chem, 2016).

tested on: not listed separately; assay: Antiproliferative activity against human HCT116 cells assessed as growth inhibition after 48 hrs by sulforhodamine B assay; format: functional; conditions: HCT-116, 48 h

Structure (SMILES)	GI50 [nM]	LC50 (concentration killing 50% of the starting cells) [nM]	TGI [nM]
CNC(=O)c1cc(Oc2ccc3nc(NC(=O)Nc4cc(C(F)(F)F)cc(C(F)(F)F)c4)sc3c2)ccn1	1120	5370	2460

tested on: not listed separately; assay: Antiproliferative activity against human HOP62 cells assessed as growth inhibition after 48 hrs by sulforhodamine B assay; format: functional; conditions: HOP-62, 48 h

Structure (SMILES)	GI50 [nM]	LC50 [nM]	TGI [nM]
CNC(=O)c1cc(Oc2ccc3nc(NC(=O)Nc4cc(C(F)(F)F)cc(C(F)(F)F)c4)sc3c2)ccn1	1150	6790	2800

tested on: not listed separately; assay: Antiproliferative activity against human Hs 578T cells assessed as growth inhibition after 48 hrs by sulforhodamine B assay; format: functional; conditions: not given

Structure (SMILES)	GI50 [nM]	TGI [nM]
CNC(=O)c1cc(Oc2ccc3nc(NC(=O)Nc4cc(C(F)(F)F)cc(C(F)(F)F)c4)sc3c2)ccn1	1650	4840

same assay, conditions: read-out: LC50 (the source's name)

Structure (SMILES)	CC50 [nM]
CNC(=O)c1cc(Oc2ccc3nc(NC(=O)Nc4cc(C(F)(F)F)cc(C(F)(F)F)c4)sc3c2)ccn1	> 100000

tested on: MDA-MB-468; assay: Antiproliferative activity against human MDA-MB-468 cells assessed as growth inhibition after 48 hrs by sulforhodamine B assay; format: functional; conditions: MDA-MB-468, 48 h

Structure (SMILES)	GI50 [nM]	TGI [nM]
CNC(=O)c1cc(Oc2ccc3nc(NC(=O)Nc4cc(C(F)(F)F)cc(C(F)(F)F)c4)sc3c2)ccn1	399	1750

same assay, conditions: MDA-MB-468, 48 h, read-out: LC50 (the source's name)

Structure (SMILES)	CC50 [nM]
CNC(=O)c1cc(Oc2ccc3nc(NC(=O)Nc4cc(C(F)(F)F)cc(C(F)(F)F)c4)sc3c2)ccn1	6080

biological target: RAF proto-oncogene serine/threonine-protein kinase (Homo sapiens, UniProt P04049); assay: Inhibition of human CRAF at 10 uM measured after 40 mins by scintillation counting; conditions: not given
Sequence (P04049 whole entry): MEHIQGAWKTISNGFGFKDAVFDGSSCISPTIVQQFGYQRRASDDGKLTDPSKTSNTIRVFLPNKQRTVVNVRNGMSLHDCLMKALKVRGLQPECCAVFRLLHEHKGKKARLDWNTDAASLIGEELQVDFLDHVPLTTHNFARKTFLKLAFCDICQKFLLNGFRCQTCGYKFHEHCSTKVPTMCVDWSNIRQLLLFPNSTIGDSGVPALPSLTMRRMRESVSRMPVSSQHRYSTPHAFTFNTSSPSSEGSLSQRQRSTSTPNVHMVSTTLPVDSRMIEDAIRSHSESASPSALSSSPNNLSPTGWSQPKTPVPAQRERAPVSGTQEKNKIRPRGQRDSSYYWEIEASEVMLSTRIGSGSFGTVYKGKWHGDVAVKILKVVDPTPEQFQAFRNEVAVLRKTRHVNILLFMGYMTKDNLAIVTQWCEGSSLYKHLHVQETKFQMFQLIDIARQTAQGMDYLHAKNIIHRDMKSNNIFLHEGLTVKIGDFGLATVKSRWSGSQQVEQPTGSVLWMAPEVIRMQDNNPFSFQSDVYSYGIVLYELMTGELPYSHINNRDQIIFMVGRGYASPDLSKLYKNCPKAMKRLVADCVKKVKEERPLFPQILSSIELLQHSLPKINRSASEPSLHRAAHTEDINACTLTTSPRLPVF

Structure (SMILES)	inhibition [%]
CNC(=O)c1cc(Oc2ccc3nc(NC(=O)Nc4cc(C(F)(F)F)cc(C(F)(F)F)c4)sc3c2)ccn1	77

biological target: CYP2C9 (Homo sapiens, UniProt P11712); assay: Inhibition of recombinant human CYP2C9 assessed as remaining enzyme activity using CYP2C9 green as substrate at 10 uM after 5 mins in presence of NADP by fluorescence plate reader analysis; format: ADME; conditions: recombinant human CYP2C9, probe CYP2C9 green, read-out: Activity
Sequence (P11712 whole entry): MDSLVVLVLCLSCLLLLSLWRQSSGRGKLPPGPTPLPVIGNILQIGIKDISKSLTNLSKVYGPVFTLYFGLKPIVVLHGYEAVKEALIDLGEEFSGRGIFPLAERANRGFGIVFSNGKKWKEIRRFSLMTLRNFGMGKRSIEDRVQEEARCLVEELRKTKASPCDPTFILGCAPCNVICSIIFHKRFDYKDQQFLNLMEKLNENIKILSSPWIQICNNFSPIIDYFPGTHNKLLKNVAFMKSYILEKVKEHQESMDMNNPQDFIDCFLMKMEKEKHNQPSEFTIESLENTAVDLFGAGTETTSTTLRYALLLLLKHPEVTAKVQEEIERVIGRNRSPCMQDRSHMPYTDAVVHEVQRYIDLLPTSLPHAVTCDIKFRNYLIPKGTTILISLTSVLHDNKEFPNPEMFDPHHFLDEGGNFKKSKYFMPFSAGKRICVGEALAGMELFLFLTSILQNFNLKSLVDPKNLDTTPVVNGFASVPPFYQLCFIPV

Structure (SMILES)	activity at 5 min, 10 µM [%]
CNC(=O)c1cc(Oc2ccc3nc(NC(=O)Nc4cc(C(F)(F)F)cc(C(F)(F)F)c4)sc3c2)ccn1	88.2

biological target: hERG (KCNH2) (Homo sapiens, UniProt Q12809); assay: Inhibition of human ERG assessed as reduction in channel current at 100 uM by automated patch-clamp electrophysiology assay; conditions: not given
Sequence (Q12809 whole entry): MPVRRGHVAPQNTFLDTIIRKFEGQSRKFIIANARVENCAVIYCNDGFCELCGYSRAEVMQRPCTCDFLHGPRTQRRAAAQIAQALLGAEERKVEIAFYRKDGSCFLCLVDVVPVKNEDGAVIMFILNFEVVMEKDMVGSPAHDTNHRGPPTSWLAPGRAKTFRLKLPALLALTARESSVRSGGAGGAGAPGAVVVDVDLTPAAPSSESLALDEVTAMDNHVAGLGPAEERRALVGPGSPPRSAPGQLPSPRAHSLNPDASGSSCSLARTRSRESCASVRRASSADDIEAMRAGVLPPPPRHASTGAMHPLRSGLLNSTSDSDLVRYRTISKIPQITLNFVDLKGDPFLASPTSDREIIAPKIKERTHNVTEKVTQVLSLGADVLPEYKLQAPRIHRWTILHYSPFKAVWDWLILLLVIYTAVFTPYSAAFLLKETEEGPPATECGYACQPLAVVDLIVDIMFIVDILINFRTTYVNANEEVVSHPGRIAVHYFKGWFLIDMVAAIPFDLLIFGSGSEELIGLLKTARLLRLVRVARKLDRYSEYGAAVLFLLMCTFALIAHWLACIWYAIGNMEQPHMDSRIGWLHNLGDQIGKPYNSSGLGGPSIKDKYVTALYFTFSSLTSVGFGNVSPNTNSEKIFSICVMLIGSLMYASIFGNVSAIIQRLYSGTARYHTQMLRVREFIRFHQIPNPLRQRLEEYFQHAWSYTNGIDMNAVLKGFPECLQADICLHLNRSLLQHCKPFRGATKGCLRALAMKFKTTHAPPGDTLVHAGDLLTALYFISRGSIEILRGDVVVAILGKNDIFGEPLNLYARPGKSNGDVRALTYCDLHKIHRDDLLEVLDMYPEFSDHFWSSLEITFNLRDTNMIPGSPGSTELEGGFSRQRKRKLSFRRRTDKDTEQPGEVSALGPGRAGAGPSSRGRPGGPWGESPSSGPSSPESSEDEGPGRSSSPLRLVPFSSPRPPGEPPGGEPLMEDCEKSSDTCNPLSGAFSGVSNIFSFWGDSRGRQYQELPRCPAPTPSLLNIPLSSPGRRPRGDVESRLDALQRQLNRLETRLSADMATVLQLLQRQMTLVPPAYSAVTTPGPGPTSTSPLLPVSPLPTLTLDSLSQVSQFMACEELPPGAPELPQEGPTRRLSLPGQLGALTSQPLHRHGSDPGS

Structure (SMILES)	inhibition at 100 µM [%]
CNC(=O)c1cc(Oc2ccc3nc(NC(=O)Nc4cc(C(F)(F)F)cc(C(F)(F)F)c4)sc3c2)ccn1	30.2

tested on: SR; assay: Antiproliferative activity against human SR cells assessed as cell growth at 10^-8 M after 48 hrs by sulforhodamine B assay; format: functional; conditions: read-out: Activity

Structure (SMILES)	growth at 0.01 µM [%]
CNC(=O)c1cc(Oc2ccc3nc(NC(=O)Nc4cc(C(F)(F)F)cc(C(F)(F)F)c4)sc3c2)ccn1	99

tested on: not listed separately; assay: Antiproliferative activity against human SF268 cells assessed as cell growth at 10^-8 M after 48 hrs by sulforhodamine B assay; format: functional; conditions: SF-268, 48 h, read-out: Activity

Structure (SMILES)	growth at 0.01 µM [%]
CNC(=O)c1cc(Oc2ccc3nc(NC(=O)Nc4cc(C(F)(F)F)cc(C(F)(F)F)c4)sc3c2)ccn1	97

tested on: Malme-3M; assay: Antiproliferative activity against human MALME-3M cells assessed as cell growth at 10^-8 M after 48 hrs by sulforhodamine B assay; format: functional; conditions: read-out: Activity

Structure (SMILES)	growth at 0.01 µM [%]
CNC(=O)c1cc(Oc2ccc3nc(NC(=O)Nc4cc(C(F)(F)F)cc(C(F)(F)F)c4)sc3c2)ccn1	96

tested on: M14; assay: Antiproliferative activity against human M14 cells assessed as cell growth at 10^-8 M after 48 hrs by sulforhodamine B assay; format: functional; conditions: M14, 48 h, read-out: Activity

Structure (SMILES)	growth at 0.01 µM [%]
CNC(=O)c1cc(Oc2ccc3nc(NC(=O)Nc4cc(C(F)(F)F)cc(C(F)(F)F)c4)sc3c2)ccn1	91

tested on: CCRF-CEM; assay: Antiproliferative activity against human CCRF-CEM cells assessed as cell growth at 10^-6 M after 48 hrs by sulforhodamine B assay; format: functional; conditions: read-out: Activity

Structure (SMILES)	growth at 1 µM [%]
CNC(=O)c1cc(Oc2ccc3nc(NC(=O)Nc4cc(C(F)(F)F)cc(C(F)(F)F)c4)sc3c2)ccn1	52

tested on: not listed separately; assay: Antiproliferative activity against human HCT15 cells assessed as cell growth at 10^-6 M after 48 hrs by sulforhodamine B assay; format: functional; conditions: HCT-15, 48 h, read-out: Activity

Structure (SMILES)	growth at 1 µM [%]
CNC(=O)c1cc(Oc2ccc3nc(NC(=O)Nc4cc(C(F)(F)F)cc(C(F)(F)F)c4)sc3c2)ccn1	76

tested on: not listed separately; assay: Antiproliferative activity against human SF295 cells assessed as cell growth at 10^-6 M after 48 hrs by sulforhodamine B assay; format: functional; conditions: SF-295, 48 h, read-out: Activity

Structure (SMILES)	growth at 1 µM [%]
CNC(=O)c1cc(Oc2ccc3nc(NC(=O)Nc4cc(C(F)(F)F)cc(C(F)(F)F)c4)sc3c2)ccn1	55

tested on: not listed separately; assay: Antiproliferative activity against human SNB75 cells assessed as cell growth at 10^-6 M after 48 hrs by sulforhodamine B assay; format: functional; conditions: SNB-75, 48 h, read-out: Activity

Structure (SMILES)	growth at 1 µM [%]
CNC(=O)c1cc(Oc2ccc3nc(NC(=O)Nc4cc(C(F)(F)F)cc(C(F)(F)F)c4)sc3c2)ccn1	50

tested on: KM12; assay: Antiproliferative activity against human KM12 cells assessed as cell growth at 10^-4 M after 48 hrs by sulforhodamine B assay; format: functional; conditions: KM12, 48 h, read-out: Activity

Structure (SMILES)	growth at 100 µM [%]
CNC(=O)c1cc(Oc2ccc3nc(NC(=O)Nc4cc(C(F)(F)F)cc(C(F)(F)F)c4)sc3c2)ccn1	-61

tested on: not listed separately; assay: Antiproliferative activity against human SF268 cells assessed as cell growth at 10^-4 M after 48 hrs by sulforhodamine B assay; format: functional; conditions: SF-268, 48 h, read-out: Activity

Structure (SMILES)	growth at 100 µM [%]
CNC(=O)c1cc(Oc2ccc3nc(NC(=O)Nc4cc(C(F)(F)F)cc(C(F)(F)F)c4)sc3c2)ccn1	-91

tested on: not listed separately; assay: Antiproliferative activity against human SNB75 cells assessed as cell growth at 10^-4 M after 48 hrs by sulforhodamine B assay; format: functional; conditions: SNB-75, 48 h, read-out: Activity

Structure (SMILES)	growth at 100 µM [%]
CNC(=O)c1cc(Oc2ccc3nc(NC(=O)Nc4cc(C(F)(F)F)cc(C(F)(F)F)c4)sc3c2)ccn1	-75

tested on: not listed separately; assay: Antiproliferative activity against human Caki1 cells assessed as cell growth at 10^-6 M after 48 hrs by sulforhodamine B assay; format: functional; conditions: CAKI-1, 48 h, read-out: Activity

Structure (SMILES)	growth at 1 µM [%]
CNC(=O)c1cc(Oc2ccc3nc(NC(=O)Nc4cc(C(F)(F)F)cc(C(F)(F)F)c4)sc3c2)ccn1	58

tested on: MDA-MB-435; assay: Antiproliferative activity against human MDA-MB-435 cells assessed as cell growth at 10^-4 M after 48 hrs by sulforhodamine B assay; format: functional; conditions: MDA-MB-435, 48 h, read-out: Activity

Structure (SMILES)	growth at 100 µM [%]
CNC(=O)c1cc(Oc2ccc3nc(NC(=O)Nc4cc(C(F)(F)F)cc(C(F)(F)F)c4)sc3c2)ccn1	-80
